Experimental data: patent US7098204B2 (C.N.R.S., priority 1999, dated 2006)
In brackets after ≈: the same amount, converted by molar mass.

Legend:
protein kinase C α = protein kinase C α (Homo sapiens, UniProt P17252); assay: protein kinase C α assay; assay type: biochemical; conditions: 15 μM ATP
Procedure: (§1) Kinases activities were assayed in Buffer A or C (unless otherwise stated), at 30° C., at a final ATP concentration of 15 μM. Blank values were subtracted and activities calculated as pmoles of phosphate incorporated for a 10 min. incubation (usually expressed in % of the maximal activity, i.e. without inhibitors). Controls were performed with appropriate dilutions of Me2SO. In some cases phosphorylation of the substrate was assessed by autoradiography after SDS-PAGE. IC50 values were estimated from the dose-response curves. • CDK1/cyclin B was extracted in homogenisation buffer from M phase starfish (Marthasterias glacialis) oocytes and purified by affinity chromatography on p9^CKShs1-Sepharose beads, from which it was eluted by free p9^CKShs1 as described. The kinase activity was assayed in buffer C, with 1 mg histone H1/ml, in the presence of 15 μM [γ-^32P] ATP (3,000 Ci/mmol; 1 mCi/ml) in a final volume of 30 μl. After 10 min. incubation at 30° C., 25 μl aliquots of supernatant were spotted onto 2.5×3 cm pieces of Whatman P81 phosphocellulose paper, and, 20 sec. later, the filters were washed five times (for at least 5 min. each time) in a solution of 10 ml phosphoric acid/liter of water. The wet filters were counted in the presence of 1 ml ACS (Amersham) scintillation fluid. • GSK-3β was either purified from rabbit muscle or expressed in and purified from insect Sf9 cells. […]

protein kinase C ε = protein kinase C ε (Homo sapiens, UniProt Q02156); assay: protein kinase C ε assay; assay type: biochemical; conditions: 15 μM ATP
Procedure: as §1

melanoma, SK-MEL-5 = assay: Human cancer cell line SK-MEL-5 proliferation; assay type: cell-based
cdk3/cyclin E = cdk3/cyclin E (Homo sapiens, UniProt Q00526); assay: cdk3/cyclin E kinase assay; assay type: biochemical; conditions: 15 μM ATP
Procedure: as §1

cdk4/cyclin D1 = cdk4/cyclin D1 (Homo sapiens, UniProt P11802); assay: cdk4/cyclin D1 kinase assay; assay type: biochemical; conditions: 15 μM ATP
Procedure: as §1

CDK1/cyclin B = CDK1/cyclin B kinase assay (histone H1); assay type: biochemical, starfish (Marthasterias glacialis)
Procedure: Kinases activities were assayed in Buffer A or C (unless otherwise stated), at 30° C., at a final ATP concentration of 15 μM. Blank values were subtracted and activities calculated as pmoles of phosphate incorporated for a 10 min. incubation (usually expressed in % of the maximal activity, i.e. without inhibitors). Controls were performed with appropriate dilutions of Me2SO. In some cases phosphorylation of the substrate was assessed by autoradiography after SDS-PAGE. IC50 values were estimated from the dose-response curves. • CDK1/cyclin B was extracted in homogenisation buffer from M phase starfish (Marthasterias glacialis) oocytes and purified by affinity chromatography on p9^CKShs1-Sepharose beads, from which it was eluted by free p9^CKShs1 as described. The kinase activity was assayed in buffer C, with 1 mg histone H1/ml, in the presence of 15 μM [γ-^32P] ATP (3,000 Ci/mmol; 1 mCi/ml) in a final volume of 30 μl. After 10 min. incubation at 30° C., 25 μl aliquots of supernatant were spotted onto 2.5×3 cm pieces of Whatman P81 phosphocellulose paper, and, 20 sec. later, the filters were washed five times (for at least 5 min. each time) in a solution of 10 ml phosphoric acid/liter of water. The wet filters were counted in the presence of 1 ml ACS (Amersham) scintillation fluid. • GSK-3β was either purified from rabbit muscle or expressed in and purified from insect Sf9 cells. It was assayed, following a 1/100 dilution in 1 mg BSA/ml 10 mM DTT, with 5 μl 40 μM GS-1 peptide as a substrate, in buffer A, in the presence of 15 μM [γ-^32P] ATP (3,000 Ci/mmol; 1 mCi/ml) in a final volume of 30 μl. […] Its activity was assayed in buffer C as described for CDK1/cyclin B. • CDK2/cyclin A, CDK2/cyclin E, CDK3/cyclin E, CDK4/cyclin D1, CDK6/cyclin D2, His-tagged erk1 and erk2, protein kinase C isoforms, the catalytic subunit of cAMP-dependent protein kinase, cGMP-dependent protein kinase, Myosin light chain kinase, casein kinases 1 & 2, ASK-γ (a plant homologue of GSK-3), insulin receptor tyrosine kinase domain (CIRK-41), c-raf, MAPKK, c-jun N terminal kinase (obtained from Promega), c-src kinase and v-abl kinase were assayed as described. Electrophoresis and Western Blotting

c-abl tyrosine kinase = c-abl tyrosine kinase (Abelson murine leukemia virus, UniProt P00521); assay: c-abl tyrosine kinase assay; assay type: biochemical; conditions: 15 μM ATP
Procedure: as §1

c-src tyrosine kinase = c-src tyrosine kinase (Homo sapiens, UniProt P12931); assay: c-src tyrosine kinase assay; assay type: biochemical; conditions: 15 μM ATP
Procedure: as §1

Eg2 kinase = Eg2 kinase (Xenopus laevis, UniProt Q91820); assay: Eg2 kinase assay; assay type: biochemical; conditions: 15 μM ATP
Procedure: Enzyme activities were assayed as described in the Experimental Procedures section, in the presence of increasing HD concentrations. IC50's were calculated from the dose-response curves.−, no effect at the highest dose tested (in parentheses).

kidney, A498 = assay: Human cancer cell line A498 proliferation; assay type: cell-based
protein kinase C β1 = protein kinase C β1 (Homo sapiens, UniProt P05771); assay: protein kinase C β1 assay; assay type: biochemical; conditions: 15 μM ATP
Procedure: as §1

P388 cell line = assay: Inhibition of cell proliferation, P388; assay type: cell-based; conditions: Mus musculus, P388; read-out: IC50 on P388 cell line in μM (parentheses)
cdk6/cyclin D2 = cdk6/cyclin D2 (Homo sapiens, UniProt Q00534); assay: cdk6/cyclin D2 kinase assay; assay type: biochemical; conditions: 15 μM ATP
Procedure: as §1

[1] = test system: 60 human tumor cell lines; assay: NCI disease-oriented in vitro screen; assay type: cell-based; conditions: 48 hr exposure, 0.01–100 μM, read-out: average IC50 over 60 human tumor cell lines
Source text: A sulforhodaminine B protein assay was used to estimate the cytotoxicity.

HT29-18-C1 cells = assay: HT29-18-C1 growth inhibition (cell counts); assay type: cell-based, human
Procedure: Cell culture and treatments. HT29-18-C1, a subclone of the human colon adenocarcinoma cell line HT29, was cultured in Dulbecco's modified Eagle's medium (Gibco-BRL) supplemented with 10% FCS, 2 mM L-glutamine (Eurobio) and […] gentamycin (Gibco-BRL) at 37° C., 10% CO2. Cells were synchronized by serum deprivation for 48 h. They were then released from growth arrest by the addition of 5% fetal calf serum (FCS). HD, prepared in DMSO, was added immediately to the medium, for 24 h and at final concentrations ranging from 0 to 80 μM. In some experiments HD was added 22 h after serum addition for an additional 24 h. In other experiments HD was added to unsynchronised cells. Cells were then washed and cultured in 5% FCS medium and counted or analysed by FACS at different times.
Cell counts and flow cytometric cell cycle analysis. Cell were counted with a hemocytometer. Cell cycle distribution was analysed by flow cytometry. The adherent cells (1.10^6) were trypsinised and fixed in cold 70% ethanol for 4 h. […] The stained cells were analysed on a FACScan cytofluorimeter using the cellFit Software program (Becton Dickinson Immunocytometry Systems).
HT29-18-C1 cells were synchronised in G1 by serum deprivation. […] Cell number was determined every 12 h for a 72 h period using a hemocytometer. […] Serum-treated cells (time 0) were exposed to various HD concentrations and counted after 24 h. […]

protein kinase C ε, sequence (Q02156 whole entry): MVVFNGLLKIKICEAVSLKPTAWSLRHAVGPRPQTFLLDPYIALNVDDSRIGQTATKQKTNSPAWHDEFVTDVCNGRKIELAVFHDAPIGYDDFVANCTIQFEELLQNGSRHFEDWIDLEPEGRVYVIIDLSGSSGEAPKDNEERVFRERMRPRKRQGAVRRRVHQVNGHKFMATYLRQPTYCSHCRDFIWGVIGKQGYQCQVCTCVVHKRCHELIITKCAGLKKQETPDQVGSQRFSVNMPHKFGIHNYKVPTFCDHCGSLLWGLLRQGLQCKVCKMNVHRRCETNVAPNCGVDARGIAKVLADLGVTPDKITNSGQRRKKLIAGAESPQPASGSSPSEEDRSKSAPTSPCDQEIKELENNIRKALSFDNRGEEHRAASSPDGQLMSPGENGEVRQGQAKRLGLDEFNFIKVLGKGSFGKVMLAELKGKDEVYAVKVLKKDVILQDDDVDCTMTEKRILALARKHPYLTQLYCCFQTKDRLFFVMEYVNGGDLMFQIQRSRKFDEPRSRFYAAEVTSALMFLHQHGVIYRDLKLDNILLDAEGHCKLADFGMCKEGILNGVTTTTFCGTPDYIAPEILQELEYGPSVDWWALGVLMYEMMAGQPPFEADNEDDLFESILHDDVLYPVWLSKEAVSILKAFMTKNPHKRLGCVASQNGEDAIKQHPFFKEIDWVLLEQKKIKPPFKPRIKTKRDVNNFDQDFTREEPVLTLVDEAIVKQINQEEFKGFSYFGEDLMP
cdk3/cyclin E, sequence (Q00526 whole entry, species assumed): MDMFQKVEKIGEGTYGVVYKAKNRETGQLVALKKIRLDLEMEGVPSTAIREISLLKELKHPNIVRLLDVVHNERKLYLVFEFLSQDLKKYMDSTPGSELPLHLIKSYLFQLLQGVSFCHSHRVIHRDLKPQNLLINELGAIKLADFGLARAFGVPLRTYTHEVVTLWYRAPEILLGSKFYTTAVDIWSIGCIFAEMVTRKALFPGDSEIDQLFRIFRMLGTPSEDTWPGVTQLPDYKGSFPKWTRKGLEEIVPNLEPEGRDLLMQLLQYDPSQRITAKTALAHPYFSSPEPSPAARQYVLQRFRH
cdk3/cyclin E, sequence (P24864 whole entry partner, species assumed): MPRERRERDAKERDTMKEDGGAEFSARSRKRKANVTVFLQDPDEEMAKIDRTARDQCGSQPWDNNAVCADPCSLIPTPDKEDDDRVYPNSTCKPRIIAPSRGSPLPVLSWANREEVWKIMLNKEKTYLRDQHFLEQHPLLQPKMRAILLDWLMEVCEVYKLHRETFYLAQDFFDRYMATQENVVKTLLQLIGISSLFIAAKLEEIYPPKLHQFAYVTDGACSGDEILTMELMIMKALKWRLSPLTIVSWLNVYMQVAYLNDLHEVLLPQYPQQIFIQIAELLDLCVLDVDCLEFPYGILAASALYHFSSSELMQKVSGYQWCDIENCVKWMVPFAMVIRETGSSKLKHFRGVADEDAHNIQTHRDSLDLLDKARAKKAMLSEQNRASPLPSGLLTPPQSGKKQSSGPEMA
cdk4/cyclin D1, sequence (P11802 whole entry, species assumed): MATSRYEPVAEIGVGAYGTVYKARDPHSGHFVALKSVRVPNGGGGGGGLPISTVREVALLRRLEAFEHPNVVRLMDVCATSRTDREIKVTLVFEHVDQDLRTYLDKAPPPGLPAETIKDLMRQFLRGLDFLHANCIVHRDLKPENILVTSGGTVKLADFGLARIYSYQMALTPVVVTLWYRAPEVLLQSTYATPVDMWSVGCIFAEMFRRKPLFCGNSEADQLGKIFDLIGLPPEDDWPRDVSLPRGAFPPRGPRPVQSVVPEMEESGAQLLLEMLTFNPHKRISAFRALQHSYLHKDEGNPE
cdk4/cyclin D1, sequence (P24385 whole entry partner, species assumed): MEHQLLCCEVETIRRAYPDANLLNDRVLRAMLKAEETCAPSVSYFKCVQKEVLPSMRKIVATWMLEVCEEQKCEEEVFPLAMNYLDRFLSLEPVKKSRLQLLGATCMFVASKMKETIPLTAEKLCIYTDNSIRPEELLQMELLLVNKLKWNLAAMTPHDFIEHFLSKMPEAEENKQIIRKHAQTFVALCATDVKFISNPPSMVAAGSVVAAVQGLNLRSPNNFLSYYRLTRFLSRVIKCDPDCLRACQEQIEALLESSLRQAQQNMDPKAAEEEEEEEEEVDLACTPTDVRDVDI
c-abl tyrosine kinase, sequence (P00521 whole entry): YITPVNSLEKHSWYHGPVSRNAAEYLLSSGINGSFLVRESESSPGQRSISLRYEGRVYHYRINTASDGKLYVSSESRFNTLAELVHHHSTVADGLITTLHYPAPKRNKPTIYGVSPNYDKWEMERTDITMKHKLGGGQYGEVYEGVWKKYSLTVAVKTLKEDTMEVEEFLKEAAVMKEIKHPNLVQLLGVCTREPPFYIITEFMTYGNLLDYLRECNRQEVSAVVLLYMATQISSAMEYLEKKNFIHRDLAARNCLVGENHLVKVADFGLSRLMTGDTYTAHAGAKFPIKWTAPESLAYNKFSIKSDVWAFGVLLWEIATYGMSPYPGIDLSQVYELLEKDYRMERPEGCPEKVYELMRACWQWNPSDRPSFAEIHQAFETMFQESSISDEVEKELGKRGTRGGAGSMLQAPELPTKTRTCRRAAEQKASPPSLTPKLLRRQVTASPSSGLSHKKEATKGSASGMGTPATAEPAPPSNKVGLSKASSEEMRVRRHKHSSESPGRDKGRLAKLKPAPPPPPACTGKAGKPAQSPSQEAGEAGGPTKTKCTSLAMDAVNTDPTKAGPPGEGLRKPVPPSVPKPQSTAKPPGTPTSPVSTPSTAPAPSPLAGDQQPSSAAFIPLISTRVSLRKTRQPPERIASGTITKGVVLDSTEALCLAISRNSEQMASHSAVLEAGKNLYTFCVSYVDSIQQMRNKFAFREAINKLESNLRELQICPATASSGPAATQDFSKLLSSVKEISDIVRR
c-src tyrosine kinase, sequence (P12931 whole entry): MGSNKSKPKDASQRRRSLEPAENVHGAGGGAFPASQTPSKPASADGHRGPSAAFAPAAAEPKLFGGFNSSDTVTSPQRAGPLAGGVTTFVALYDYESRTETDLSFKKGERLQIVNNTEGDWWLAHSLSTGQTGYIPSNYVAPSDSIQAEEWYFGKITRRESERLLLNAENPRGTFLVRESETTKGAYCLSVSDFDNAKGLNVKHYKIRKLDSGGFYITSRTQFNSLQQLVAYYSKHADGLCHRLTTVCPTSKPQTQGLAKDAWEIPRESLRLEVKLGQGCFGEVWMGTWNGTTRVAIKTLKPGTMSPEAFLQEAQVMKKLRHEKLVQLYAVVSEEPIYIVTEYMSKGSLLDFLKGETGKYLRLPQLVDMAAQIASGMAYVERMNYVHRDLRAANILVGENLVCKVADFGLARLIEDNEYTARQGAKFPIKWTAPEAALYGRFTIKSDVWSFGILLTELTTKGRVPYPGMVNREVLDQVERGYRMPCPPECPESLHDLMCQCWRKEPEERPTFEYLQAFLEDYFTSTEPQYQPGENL
protein kinase C β1, sequence (P05771 whole entry): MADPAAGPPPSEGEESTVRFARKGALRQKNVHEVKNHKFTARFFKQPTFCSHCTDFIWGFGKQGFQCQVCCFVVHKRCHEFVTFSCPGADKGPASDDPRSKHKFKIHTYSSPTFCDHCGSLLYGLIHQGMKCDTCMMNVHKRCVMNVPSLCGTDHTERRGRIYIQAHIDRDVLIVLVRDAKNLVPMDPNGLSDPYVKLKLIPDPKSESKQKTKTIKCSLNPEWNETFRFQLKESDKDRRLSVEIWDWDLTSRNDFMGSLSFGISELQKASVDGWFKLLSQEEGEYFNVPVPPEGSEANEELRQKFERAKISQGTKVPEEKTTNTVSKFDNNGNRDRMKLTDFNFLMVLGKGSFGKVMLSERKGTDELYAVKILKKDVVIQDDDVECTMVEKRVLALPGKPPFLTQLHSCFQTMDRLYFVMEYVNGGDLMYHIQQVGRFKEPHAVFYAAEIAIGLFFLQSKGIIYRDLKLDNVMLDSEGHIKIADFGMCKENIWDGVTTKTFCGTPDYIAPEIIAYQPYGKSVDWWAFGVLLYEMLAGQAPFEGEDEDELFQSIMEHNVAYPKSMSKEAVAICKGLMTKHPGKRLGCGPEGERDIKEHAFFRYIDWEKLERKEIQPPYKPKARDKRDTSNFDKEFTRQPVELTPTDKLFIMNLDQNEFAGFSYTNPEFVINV

Question: What does the source list for `NC1=NC(=O)C(=C2CCNC(=O)c3[nH]c(Br)cc32)N1` [hymenialdisine, 4-(2-amino-4-oxo-2-imidazolin-5-ylidene)-2-bromo-4,5,6,7-tetrahydropyrrolo (2,3-c) azepine-8-one]?
Answer: IC50 (protein kinase C α): 700 nM; IC50 (protein kinase C ε): 6.5 µM; IC50 (melanoma, SK-MEL-5): 5.7 µg/mL (≈ 17.6 µM); IC50 (cdk3/cyclin E): 100 nM; IC50 (cdk4/cyclin D1): 600 nM; IC50 (CDK1/cyclin B): 22 nM; IC50 (c-abl tyrosine kinase): 4 µM; IC50 (c-src tyrosine kinase): 7 µM; IC50 (Eg2 kinase): 4 µM; IC50 (kidney, A498): 24.7 µg/mL (≈ 76.2 µM); IC50 (protein kinase C β1): 1200 nM; IC50 (P388 cell line): 9.9 µM; IC50 (cdk6/cyclin D2): 700 nM; IC50 [1]: 15.1 µM; growth of HT29-18-C1 (cell number) (HT29-18-C1 cells; 10 μM for 24 h, followed over 72 h): strong growth inhibition; IC50 (HT29-18-C1 cells; Homo sapiens, serum-treated cells counted after 24 h): 5 µM
